Results as given in patent publication US8389541B2, “Inhibitors of protein tyrosine kinase activity” (MethylGene Inc., priority 2007, dated 2013).
Like-named read-outs stand apart in the source and are kept apart here.

How the values were obtained:
[1] = system: MKN45 tumor; assay: In vivo solid tumor disease model, MKN45; parameters: species or system mice; conditions: Mus musculus, MKN-45, po, read-out: Tumor Growth Inhibition (%); for inhibition in vivo at 20 mg/kg: MKN45, 20 mg/kg orally daily; for inhibition in vivo at 40 mg/kg: 336 h, MKN45, 40 mg/kg orally daily, 14 days
[2] = biological target: T1, c-Met (Homo sapiens, UniProt P08581); assay: Inhibition of c-Met phosphorylation in MKN45 cells (direct ELISA); format: cell-based; conditions: 3 h treatment, read-out: CMET ELISA IN MKN45 IC50
T1 construct: endogenous in cells; host or cells: MKN45 gastric carcinoma cells
T1 sequence (P08581 25-1390): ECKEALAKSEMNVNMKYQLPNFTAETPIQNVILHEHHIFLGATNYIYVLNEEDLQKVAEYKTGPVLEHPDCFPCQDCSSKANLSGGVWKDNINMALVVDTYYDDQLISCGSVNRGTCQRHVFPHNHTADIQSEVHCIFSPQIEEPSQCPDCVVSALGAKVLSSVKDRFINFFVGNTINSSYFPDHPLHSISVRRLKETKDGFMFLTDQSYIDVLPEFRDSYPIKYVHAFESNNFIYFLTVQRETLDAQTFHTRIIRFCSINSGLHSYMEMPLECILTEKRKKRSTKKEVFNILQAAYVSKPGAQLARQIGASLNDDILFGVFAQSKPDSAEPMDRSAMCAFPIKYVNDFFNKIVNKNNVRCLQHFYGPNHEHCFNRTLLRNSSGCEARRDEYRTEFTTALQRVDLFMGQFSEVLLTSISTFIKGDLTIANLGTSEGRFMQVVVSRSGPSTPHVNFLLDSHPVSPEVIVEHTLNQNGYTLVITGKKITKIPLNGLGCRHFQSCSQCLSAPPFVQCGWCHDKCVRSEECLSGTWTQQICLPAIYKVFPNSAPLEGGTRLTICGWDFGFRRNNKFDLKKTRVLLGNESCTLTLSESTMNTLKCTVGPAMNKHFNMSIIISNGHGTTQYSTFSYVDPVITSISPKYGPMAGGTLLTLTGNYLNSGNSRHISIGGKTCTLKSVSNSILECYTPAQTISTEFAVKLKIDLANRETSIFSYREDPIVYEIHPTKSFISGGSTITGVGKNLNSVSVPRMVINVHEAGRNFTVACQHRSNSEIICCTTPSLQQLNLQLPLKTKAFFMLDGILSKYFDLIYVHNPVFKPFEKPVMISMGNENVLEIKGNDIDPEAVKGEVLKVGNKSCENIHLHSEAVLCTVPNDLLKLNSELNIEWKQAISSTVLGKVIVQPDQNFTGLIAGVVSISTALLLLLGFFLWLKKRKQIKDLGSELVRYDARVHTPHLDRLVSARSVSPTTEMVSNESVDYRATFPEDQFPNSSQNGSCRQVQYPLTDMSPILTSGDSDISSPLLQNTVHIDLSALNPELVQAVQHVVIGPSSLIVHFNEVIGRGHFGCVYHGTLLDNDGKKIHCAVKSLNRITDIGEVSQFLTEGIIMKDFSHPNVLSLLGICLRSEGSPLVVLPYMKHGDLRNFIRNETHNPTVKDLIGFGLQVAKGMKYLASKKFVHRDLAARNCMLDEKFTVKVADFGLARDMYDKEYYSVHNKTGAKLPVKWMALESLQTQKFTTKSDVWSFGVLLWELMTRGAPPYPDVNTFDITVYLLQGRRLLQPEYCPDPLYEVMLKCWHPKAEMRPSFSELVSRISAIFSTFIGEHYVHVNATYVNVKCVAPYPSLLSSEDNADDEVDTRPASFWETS
Text: The following assay is used to determine inhibition of c-Met phosphorylation.
The c-Met receptor is expressed in numerous cancer cell lines derived from tumors of epithelial origin. In MKN45 gastric carcinoma cells the c-Met gene is amplified, resulting in several-fold overexpression of the receptor and its constitutive activation. For this reason constitutively high levels of ERK1/2 are also detected in these cells, independently of HGF-added stimulation (Smolen G A, Sordella R, Muir B, Mohapatra G, Barmettler A, Archibald H, et al. Amplification of MET may identify a subset of cancers with extreme sensitivity to the selective tyrosine kinase inhibitor PHA-665752. Proc Natl Acad Sci USA 2006). We have developed a sensitive method to follow c-Met phosphorylation in these cells. In previous studies with earlier generation c-Met inhibitors, we established that the IC50s for the inhibition of c-Met phosphorylation were identical using this novel ELISA approach and standard western blot procedure, with antibodies directed against the activating autocatalysis tyrosine residues of c-MET (Tyr Y1230-34-35).
Cell treatments: MKN45 cells are seeded into wells of 96-well plates at a density of 3×10^4 cells/well in RPMI medium supplemented with 10% FBS. HA-TPR-RON expressing 293T (clone 18) cells are seeded into wells of 96-well plates at a density of 3×10^4 cells/well in DMEM medium supplemented with 10% FBS. Cells are grown for 48 h prior to treatments with compounds of interest. Inhibitors are added to the medium in triplicate wells at the indicated doses. After 3 h of treatment, media is aspirated and cells are lysed by one freeze-thaw cycle in 50 μL/well hypotonic lysis buffer (25 mM HEPES pH 7.5, 10 mM NaCl with 1 mM 4-(2-aminoethyl)benzenesulfonyl fluoride hydrochloride, 200 μM sodium orthovanadate, 1 mM sodium fluoride, 10 μg/mL of leupeptin, 10 μg/mL of aprotinin/mL, 1 μg/mL of pepstatin and 50 μg/mL Na-p-tosyl-L-lysine chloromethyl ketone hydrochloride.
Detection of phosphorylated c-Met by direct ELISA: Lysate samples (5 μL) from wells of treatment plates are transferred to 80 μL of binding buffer (25 mM HEPES pH 7.5, 200 mM NaCl) in wells of high binding white polysterene 96-well plates (Corning). After an overnight protein binding incubation at 4° C., lysates are aspirated and wells are blocked for 1 h at 37° C. in TBST supplemented with 5% BSA. Plates are incubated with the primary antibodies anti-phospho-Tyrosine (Millipore, 4G10) diluted 1/15000 in TBST supplemented with 5% BSA for 1 h at room temperature. Plates are washed 3 times on a plate washer (SkanWasher, Molecular Devises), and incubated with the reporter antibody […] (Sigma) diluted 1/15000 in TBST supplemented with 5% BSA, for 1 h at room temperature. Plates are washed 3 times with TBST using on a plate washer and subsequently incubated with chemiluminescent substrate solution (ECL, Roche). Luminescence signal is captured on a Polar Star Optima apparatus (BMG LabTech).
Average values of the triplicate samples are used to prepare IC50 curves using a 4-parameter fit model. These curves are calculated using, for example, GraFit 5.0 software. For assay standardization purpose, an internal control is included on each experimental test plate.

[3] = system: DU145 cells; assay: Scatter assay in DU145 cells (HGF-stimulated); format: cell-based; conditions: Homo sapiens, DU-145, last dose that created an inhibitory effect on scattering, 24 h, read-out: DU145 SCATT. INHIB IC50
Protocol: Scatter assays in DU145. The scatter assay is performed as described previously (Miura H, Nishimura K, Tsujimura A, Matsumiya K, Matsumoto K, Nakamura T, et al. Effects of hepatocyte growth factor on E-cadherin-mediated cell-cell adhesion in DU145 prostate cancer cells. Urology 2001; 58(6):1064-9) for DU145 prostate carcinoma cells with the indicated modifications. In brief, DU145 cells (ATCC) are seeded in 24-well plates at a density of 7×10^3 cells/well in MEM medium complemented with 10% FBS and cultured for 48 h, to allow the formation of small compact colonies of cells. Inhibitors are subsequently added at a range of doses (0.00032-10 uM) for 3 h. Cells are then stimulated to migrate by the addition of HGF (in the form of conditioned medium from 293T cells over-expressing the human HGF gene) and the culture is continued for another 24 h. The IC50 values is defined as the last dose that created an inhibitory effect on scattering. For the purpose of standardization a control is carried on every test plates for the DU145 scattering assays.

[4] = biological target: recombinant human c-Met/HGF receptor (Homo sapiens, UniProt P08581); assay: In vitro receptor tyrosine kinase assay (DELFIA), c-Met/HGF receptor
Sequence of recombinant human c-Met/HGF receptor (P08581 1078-1337): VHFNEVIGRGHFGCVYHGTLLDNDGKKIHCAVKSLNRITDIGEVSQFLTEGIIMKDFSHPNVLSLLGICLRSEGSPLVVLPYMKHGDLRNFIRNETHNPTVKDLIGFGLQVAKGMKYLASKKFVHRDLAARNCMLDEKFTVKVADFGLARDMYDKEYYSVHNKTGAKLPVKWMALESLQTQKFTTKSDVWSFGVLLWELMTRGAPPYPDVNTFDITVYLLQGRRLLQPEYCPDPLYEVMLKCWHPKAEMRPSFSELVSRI

[5] = system: A549 cells; assay: Wound healing assay in A549 cells (HGF-stimulated); format: cell-based; conditions: Homo sapiens, last dose that inhibited gap closing by more than 25%, 24 h, read-out: A549 WOUND_HEALING IC50
Protocol: Wound healing assay in A549 cells. A549 cells (ATCC) are seeded in DMEM low glucose medium complemented with 10% FBS into 24-well plates at a density of 7.5×10^4 cells/well and grown to confluence (48 h). Inhibitors were added to the medium at a range of doses (0.00032-10 uM) for 3 h at which point a gap is introduced by scraping cells with a P1000 pipette tip. Cells are then stimulated to migrate by the addition of HGF (in the form of conditioned medium from 293T cells over-expressing the human HGF gene) and the culture is continued for 24 h. […] For the purpose of standardization, a control is carried on every assay plates.

[6] = biological target: T2, VEGF receptor KDR (Homo sapiens, UniProt P35968); assay: In vitro receptor tyrosine kinase assay (DELFIA), VEGF receptor KDR; format: biochemical; conditions: GST-VEGFR2 806-1356, 0.6 uM ATP; read-out: VEGFR IC50
T2 construct: made in house; host or cells: Sf9 cells (Spodoptera frugiperda), baculovirus
T2 sequence (P35968 806-1356): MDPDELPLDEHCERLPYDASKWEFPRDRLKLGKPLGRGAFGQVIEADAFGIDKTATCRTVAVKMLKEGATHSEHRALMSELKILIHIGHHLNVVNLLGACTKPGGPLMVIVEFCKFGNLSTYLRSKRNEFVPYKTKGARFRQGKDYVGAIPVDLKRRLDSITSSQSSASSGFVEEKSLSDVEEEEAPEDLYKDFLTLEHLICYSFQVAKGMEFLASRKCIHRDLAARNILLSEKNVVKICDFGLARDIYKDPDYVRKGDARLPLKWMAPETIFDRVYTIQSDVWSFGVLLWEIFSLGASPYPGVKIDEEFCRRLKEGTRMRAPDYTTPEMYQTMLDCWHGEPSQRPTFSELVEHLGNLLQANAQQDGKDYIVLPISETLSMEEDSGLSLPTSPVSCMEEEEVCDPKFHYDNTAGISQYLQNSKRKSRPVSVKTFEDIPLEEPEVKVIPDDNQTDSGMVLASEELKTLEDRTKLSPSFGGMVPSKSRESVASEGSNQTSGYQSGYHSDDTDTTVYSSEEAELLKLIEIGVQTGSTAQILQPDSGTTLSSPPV
Text: In the case of VEGF receptor KDR a 1.6-kb cDNA corresponding to the catalytic domain of VEGFR2 or KDR (Genbank accession number AF035121 amino acid 806 to 1356) is cloned into the Pst I site of the pDEST20 Gateway vector (Invitrogen) for the production of a GST-tagged version of that enzyme.
The GST-VEGFR2806-1356 protein is expressed in Sf9 cells (Spodoptera frugiperda) upon infection with recombinant baculovirus construct.
The supernatant is loaded onto a GST-agarose column (Sigma) equilibrated with PBS pH 7.3. Following a four column volume (CV) wash with PBS pH 7.3+1% Triton X-100 and 4 CV wash with buffer B (50 mM Tris pH 8.0, 20% glycerol and 100 mM NaCl), bound proteins are step eluted with 5 CV of buffer B supplemented with 5 mM DTT and 15 mM glutathion. […] Final GST-VEGFR2806-1356 protein preparations concentrations are about 0.7 mg/ml with purity approximating 70%.

| SMILES | inhibition in vivo at 20 mg/kg ([1]; 192 h, 8 days) [%] | inhibition in vivo at 20 mg/kg ([1]; 312 h, 13 days) [%] | inhibition in vivo at 40 mg/kg [1] [%] | inhibition in vivo at 20 mg/kg ([1]; 168 h, 7 days) [%] | IC50 [2] [nM] | IC50 [3] [nM] | IC50 [4] [nM] | IC50 [5] [nM] | IC50 [6] [nM] |
| --- | --- | --- | --- | --- | --- | --- | --- | --- | --- |
| COCCNCc1ccc(-c2cc3nccc(Oc4ccc(NC(=S)NC(=O)Cc5ccccc5)cc4F)c3s2)cn1 [drawing 362] | < 25 | – | – | – | – | – | – | – | – |
| COCCNCc1cnc(-c2cc3nccc(Oc4ccc(NC(=O)CC(=O)Nc5ccccc5)cc4F)c3s2)n1C [drawing 372] | – | 25 to 50 | 25 to 50 | – | – | – | – | – | – |
| COCCNCc1ccc(-c2cc3nccc(Oc4ccc(NC(=S)NC(=O)Cc5ccccc5OC)cc4F)c3s2)nc1 [drawing 365] | 25 to 50 | – | – | – | – | – | – | – | – |
| COCCNCc1ccc(-c2cc3nccc(Oc4ccc(NC(=S)NC(=O)Cc5ccc(F)cc5)cc4F)c3s2)cn1 [drawing 363] | 25 to 50 | – | – | – | – | – | – | – | – |
| COC[C@H](C)NCc1cccc(-c2cc3nccc(Oc4ccc(NC(=S)NC(=O)Cc5ccc(F)cc5)cc4F)c3s2)c1 [drawing 361] | – | – | – | 25 to 50 | – | – | – | – | – |
| CN(C(=O)CC(=O)Nc1ccc(Oc2ccnc3cc(-c4ccc(CNCCS(C)(=O)=O)cc4)sc23)c(F)c1)c1ccccc1 [drawing 347] | – | – | – | – | < 250 | 250 to 500 | < 250 | 250 to 500 | < 250 |
| COCCNCc1cccc(-c2cc3nccc(Oc4ccc(NC(=O)C5(C(=O)Nc6ccccc6)CC5)cc4F)c3s2)c1 | – | – | – | – | < 250 | < 250 | < 250 | < 250 | < 250 |
| COCCNCCn1cc(-c2cc3nccc(Oc4ccc(NC(=O)C5(C(=O)Nc6ccccc6)CC5)cc4F)c3s2)cn1 | – | – | – | – | < 250 | < 250 | < 250 | < 250 | < 250 |
| COC[C@H](C)NCc1ccc(-c2cc3nccc(Oc4ccc(NC(=S)NC(=O)Cc5ccccc5)cc4F)c3s2)cc1 | – | – | – | – | 250 to 500 | 250 to 500 | < 250 | 250 to 500 | < 250 |
| COCCNC(=O)c1ccc(-c2cc3nccc(Oc4ccc(NC(=S)NC(=O)Cc5ccccc5)cc4F)c3s2)cc1 | – | – | – | – | < 250 | 250 to 500 | < 250 | > 1000 | < 250 |
| CSCCNCc1ccc(-c2cc3nccc(Oc4ccc(NC(=S)NC(=O)Cc5ccc(F)cc5)cc4F)c3s2)cc1 | – | – | – | – | < 250 | 250 to 500 | < 250 | > 1000 | < 250 |
| COC[C@H](C)NCc1cccc(-c2cc3nccc(Oc4ccc(NC(=S)NC(=O)Cc5ccccc5)cc4F)c3s2)c1 | – | – | – | – | < 250 | 250 to 500 | < 250 | 250 to 500 | < 250 |
| COCCNCc1ccc(-c2cc3nccc(Oc4ccc(NC(=S)NC(=O)Cc5ccccc5)cc4F)c3s2)cn1 [drawing 308] | – | – | – | – | < 250 | 250 to 500 | < 250 | 250 to 500 | 250 to 500 |
| COCCNCc1ccc(-c2cc3nccc(Oc4ccc(NC(=S)NC(=O)Cc5ccc(F)cc5)cc4F)c3s2)cn1 [drawing 309] | – | – | – | – | < 250 | < 250 | < 250 | 250 to 500 | < 250 |
| COCCNCc1ccc(-c2cc3nccc(Oc4ccc(NC(=S)NC(=O)Cc5ccc(F)cc5)cc4F)c3s2)o1 | – | – | – | – | < 250 | > 1000 | < 250 | > 1000 | < 250 |
| COCCNCc1ccc(-c2cc3nccc(Oc4ccc(NC(=O)CC(=O)Nc5ccc(F)cc5)cc4F)c3s2)nc1 | – | – | – | – | < 250 | 250 to 500 | < 250 | < 250 | < 250 |
| COCCNCc1cnc(-c2cc3nccc(Oc4ccc(NC(=O)CC(=O)Nc5ccccc5)cc4F)c3s2)n1C [drawing 345] | – | – | – | – | < 250 | 250 to 500 | < 250 | 250 to 500 | < 250 |
| COCCNCc1ccc(-c2cc3nccc(Oc4ccc(NC(=O)CC(=O)Nc5ccccc5)cc4F)c3s2)c(F)c1 | – | – | – | – | < 250 | 250 to 500 | < 250 | > 1000 | < 250 |
| COCCNCc1cccc(-c2cc3nccc(Oc4ccc(NC(=O)CC(=O)Nc5ccccc5)cc4F)c3s2)c1 | – | – | – | – | 250 to 500 | 250 to 500 | < 250 | 250 to 500 | < 250 |
| COCCNCCn1cc(-c2cc3nccc(Oc4ccc(NC(=O)CC(=O)N(C)c5ccccc5)cc4F)c3s2)cn1 [drawing 369] | – | – | < 25 | – | – | – | – | – | – |
| COC[C@H](C)NCc1ccc(-c2cc3nccc(Oc4ccc(NC(=O)C5(C(=O)Nc6ccccc6)CC5)cc4F)c3s2)cc1 | – | – | – | – | < 250 | < 250 | < 250 | < 250 | < 250 |
| COCCNCCc1ccc(-c2cc3nccc(Oc4ccc(NC(=O)CC(=O)Nc5ccccc5)cc4F)c3s2)cc1 | – | – | – | – | 250 to 500 | 250 to 500 | < 250 | 250 to 500 | < 250 |
| COCCNCc1ccc(-c2cc3nccc(Oc4ccc(NC(=O)C5(C(=O)Nc6ccccc6)CC5)cc4F)c3s2)cc1 [drawing 364] | ≥ 75 | – | – | – | – | – | – | – | – |
